Measured values: PubChem BioAssay (NCI)
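1) Cells in 96-well plates. 2) Compound, 48 h, 5 concentrations. 3) Linear interpolation between surrounding doses. 4) Unreached endpoint = highest concentration. Here, GI50 denotes the concentration required for 50% inhibition of growth. TGI: total growth inhibition.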

Key:
Test in all cases: NCI anticancer screen, dose series, 48 h
[1] = test system: MOLT-4 leukemia
[2] = test system: SW-620 colon
[3] = test system: EKVX NSCLC
[4] = test system: OVCAR-8 ovarian
[5] = test system: NCI-H460 lung
[6] = test system: U251 CNS
[7] = test system: TK-10 renal
[8] = test system: HCC-2998 colon

Cc1cccc(C)c1NC(=O)C(=O)C(C(=O)c1ccccc1-c1ccccc1)C1OC(=O)c2ccccc21 (stereo not given)
TGI [1]: 58.1 µM | TGI [2]: 65.2 µM | TGI [3]: 65.4 µM | TGI [4]: > 100 µM | TGI [5]: 78.2 µM | TGI [6]: 30.7 µM | TGI [7]: 53.7 µM | TGI [8]: 29.7 µM

Cc1cc(C)nc(NS(=O)(=O)c2ccc(NC(=O)c3cccc4c(Nc5ccc(S(N)(=O)=O)cc5)c5ccccc5nc34)cc2)n1
TGI [1]: 29.3 µM | TGI [2]: > 100 µM | TGI [3]: > 100 µM | TGI [4]: > 100 µM | TGI [5]: > 100 µM | TGI [6]: > 71.2 µM | TGI [7]: > 100 µM | TGI [8]: 36.1 µM

O=C(/C=C/c1ccccc1Cl)NC1C=Nc2ccc([N+](=O)[O-])cc2NC1 (stereo not given)
TGI [1]: 49.3 µM | TGI [2]: 18.2 µM | TGI [3]: > 100 µM | TGI [4]: > 100 µM | TGI [5]: > 100 µM | TGI [6]: > 100 µM | TGI [7]: > 100 µM | TGI [8]: > 100 µM

Cc1nc([N+](=O)[O-])cn1CC(=N)N
TGI [1]: > 100 µM | TGI [2]: > 100 µM | TGI [3]: > 100 µM | TGI [4]: > 100 µM | TGI [5]: > 100 µM | TGI [6]: > 100 µM | TGI [7]: > 100 µM | TGI [8]: > 100 µM

CC(C)N(C(=O)C12C3C4C1(I)C1C2C3(I)C41C(=O)N(C(C)C)C(C)C)C(C)C (stereo not given)
TGI [1]: > 100 µM | TGI [2]: > 59.6 µM | TGI [3]: > 100 µM | TGI [4]: > 100 µM | TGI [5]: > 100 µM | TGI [6]: > 100 µM | TGI [7]: > 100 µM | TGI [8]: > 100 µM

COC(=O)[C@H]1C=C[C@@H](C)n2c(=O)c3cc4ccccc4cc3c(=O)n21
TGI [1]: > 100 µM | TGI [2]: > 100 µM | TGI [3]: > 100 µM | TGI [4]: > 100 µM | TGI [5]: > 100 µM | TGI [6]: > 100 µM | TGI [7]: > 100 µM | TGI [8]: > 100 µM

O=P1(c2ccccc2)CCCCC1
TGI [1]: > 100 µM | TGI [3]: > 100 µM | TGI [4]: > 100 µM | TGI [5]: > 100 µM | TGI [6]: > 100 µM | TGI [7]: > 100 µM | TGI [8]: > 100 µM

COc1cc(C=O)c(-c2cc(OC)c(OC)cc2C=O)cc1OC
TGI [1]: > 100 µM | TGI [2]: > 100 µM | TGI [3]: > 100 µM | TGI [4]: > 100 µM | TGI [5]: > 100 µM | TGI [6]: > 100 µM | TGI [7]: > 100 µM | TGI [8]: > 100 µM

CCCN1CN(C(C(=O)N[C@@H]2C(=O)N3C2SC(C)(C)C3C(=O)O)c2ccc(O)cc2)CSC1=S (stereo not given in full)
TGI [1]: > 100 µM | TGI [3]: > 100 µM | TGI [4]: > 100 µM | TGI [5]: > 100 µM | TGI [6]: > 100 µM | TGI [7]: > 100 µM

CC1COC(C)(C)P(=O)(c2ccccc2)C1 (stereo not given)
TGI [1]: > 100 µM | TGI [2]: > 100 µM | TGI [3]: > 100 µM | TGI [4]: > 100 µM | TGI [5]: > 100 µM | TGI [6]: > 100 µM | TGI [7]: > 100 µM | TGI [8]: > 100 µM

CCCO/S(=N\S(=O)(=O)c1ccccc1)c1ccccc1[N+](=O)[O-] (stereo not given)
TGI [1]: > 100 µM | TGI [2]: > 100 µM | TGI [3]: > 100 µM | TGI [4]: > 100 µM | TGI [5]: > 100 µM | TGI [6]: > 100 µM | TGI [8]: > 100 µM

Cc1ccc(S(=O)(=O)c2ccc(N)cc2)cc1
TGI [1]: > 100 µM | TGI [2]: > 100 µM | TGI [3]: > 100 µM | TGI [4]: > 100 µM | TGI [5]: > 100 µM | TGI [6]: > 100 µM | TGI [7]: > 100 µM | TGI [8]: > 100 µM

COc1cc2c(OC)cc1CSCc1sc(C)c(c1Br)CSC2
TGI [1]: > 100 µM | TGI [2]: > 100 µM | TGI [3]: > 100 µM | TGI [4]: > 100 µM | TGI [5]: > 100 µM | TGI [6]: > 100 µM | TGI [7]: > 100 µM | TGI [8]: > 100 µM

Cc1c(/C=N/NC(=O)c2ccc(Cl)cc2)c(=O)n(-c2ccccc2)n1C
TGI [1]: > 100 µM | TGI [2]: > 100 µM | TGI [3]: > 100 µM | TGI [4]: > 100 µM | TGI [5]: > 100 µM | TGI [6]: > 100 µM | TGI [7]: > 100 µM | TGI [8]: > 100 µM

C/C(CC(=O)Nc1cccc(Cl)c1C)=N\NC(=O)c1ccncc1
TGI [1]: > 100 µM | TGI [2]: > 100 µM | TGI [3]: > 100 µM | TGI [4]: > 100 µM | TGI [5]: > 100 µM | TGI [6]: > 100 µM | TGI [7]: > 100 µM | TGI [8]: > 100 µM

N#CC(C(=O)C(=O)Nc1ccc(Cl)cc1)c1ccccc1 (stereo not given)
TGI [1]: > 100 µM | TGI [2]: > 100 µM | TGI [3]: > 100 µM | TGI [5]: > 100 µM | TGI [6]: > 100 µM | TGI [7]: > 100 µM | TGI [8]: > 100 µM

O=[N+]([O-])c1ccc(N2N=C(c3ccc(NCc4nc5ccccc5[nH]4)cc3)CC2c2ccco2)cc1 (stereo not given)
TGI [1]: 31.3 µM | TGI [2]: > 100 µM | TGI [4]: 57.7 µM | TGI [5]: > 100 µM | TGI [6]: > 100 µM | TGI [7]: > 100 µM | TGI [8]: 94.1 µM

Cc1cc(NS(=O)(=O)c2ccc(Nc3c4ccccc4nc4c(C(=O)N5CCN(CCO)CC5)ccc(Cl)c34)cc2)no1
TGI [1]: > 100 µM | TGI [4]: > 100 µM | TGI [5]: > 100 µM | TGI [6]: > 100 µM | TGI [7]: > 100 µM | TGI [8]: > 100 µM

CC(C)N(CCn1c2c3ccccc3ccc2c2oc(=O)c3ccccc3c21)C(C)C
TGI [1]: > 100 µM | TGI [2]: > 100 µM | TGI [3]: > 100 µM | TGI [4]: > 100 µM | TGI [5]: > 100 µM | TGI [6]: > 100 µM | TGI [7]: > 100 µM

CC(=O)[O][Ga]([Br])[O]C(C)=O
GI50 [1]: > 100 µM | TGI [1]: > 100 µM | GI50 [2]: > 100 µM | TGI [2]: > 100 µM | GI50 [4]: > 100 µM | TGI [4]: > 100 µM | GI50 [5]: > 100 µM | TGI [5]: > 100 µM | GI50 [6]: > 100 µM | TGI [6]: > 100 µM | GI50 [7]: > 100 µM | TGI [7]: > 100 µM
